Source: paper PMC7764284, “Determination of the Synthetic Cannabinoids JWH-122, JWH-210, UR-144 in Oral Fluid of Consumers by GC-MS and Quantification of Parent Compounds and Metabolites by UHPLC-MS/MS” (International Journal of Molecular Sciences, 2020)

Key:
[1] = parameters: method as in PMID 21871150; conditions: oral fluid; after smoking two types of herbal products; cited from earlier work
[2] = Oral fluid concentration-time course of SCs and metabolites in consumers after smoking self-administration (GC-MS and UHPLC-HRMS); conditions: for second peak concentration in OF: after the decrease at 3 h
[3] = consumer smoked JWH-210 3 mg, UHPLC-HRMS
[4] = female, human, po, 3 mg, peak concentration (Cmax) in OF, consumer smoked JWH-210 3 mg, by UHPLC-HRMS, at 20 min
[5] = female, human, po, 3 mg, second peak concentration (Cmax) in OF, consumer smoked JWH-210 3 mg, UHPLC-HRMS, after 2 h

CCCCCn1cc(C(=O)c2cccc3ccccc23)c2ccccc21 [JWH-018]
time of peak OF concentration [1]: 20 min

Cc1ccc(C(=O)c2cn(CCCC(C)O)c3ccccc23)c2ccccc12 (centres unmarked) [JWH-122 N-(4-OH), (1-(4-hydroxypentyl)-1H-indol-3-yl)(4-methylnaphthalen-1-yl)methanone]
concentration range in OF ([2]; consumer smoked JWH-122 1 mg, UHPLC-HRMS, between 10 min and 3 h after smoking): 0.29 to 0.36 ng/mL
concentration at 20 min ([2]; female, human, po, 1 mg): 0.29 ng/mL

Cc1ccc(C(=O)c2cn(CCCCCO)c3ccccc23)c2ccccc12 [JWH-122 N-(5-OH), (1-(5-hydroxypentyl)-1H-indol-3-yl)(4-methylnaphthalen-1-yl)-methanone]
detection of metabolite in OF ([2]; consumer smoked JWH-122 1 mg, UHPLC-HRMS): only detected in traces under the LOQ

CCCCCn1cc(C(=O)c2ccc(C)c3ccccc23)c2ccccc21 [JWH-122, (4-methyl-1-naphthalenyl)(1-pentyl-1H-indol-3-yl)-methanone]
second peak concentration in OF ([2]; consumer smoked JWH-122 1 mg, by GC-MS): 2.00 ng/mL
second peak concentration in OF ([2]; consumer smoked JWH-122 1 mg, by UHPLC-HRMS): 1.60 ng/mL
Tmax ([2]; female, human, po, 1 mg): 20 min
Cmax ([2]; female, human, po, 1 mg, peak concentration (Cmax) in OF, consumer smoked JWH-122 1 mg, by GC-MS, at 20 min): 4 ng/mL
Cmax ([2]; female, human, po, 1 mg, peak concentration (Cmax) in OF, consumer smoked JWH-122 1 mg, by UHPLC-HRMS, at 20 min): 3.14 ng/mL

CCc1ccc(C(=O)c2cn(CCCC(C)O)c3ccccc23)c2ccccc12 (centres unmarked) [JWH-210 N-(4-OH), (4-ethylnaphthalen-1-yl)(1-(4-hydroxypentyl)-1H-indol-3-yl)methanone]
time of second peak concentration [2, 3]: 2 h
Tmax ([2]; female, human, po, 3 mg): 20 min
Cmax [2, 4]: 0.29 ng/mL
Cmax [2, 5]: 0.98 ng/mL

CCc1ccc(C(=O)c2cn(CCCCCO)c3ccccc23)c2ccccc12 [JWH-210 N-(5-OH), (4-ethylnaphthalen-1-yl)(1-(5-hydroxypentyl)-1H-indol-3-yl)methanone]
time of second peak concentration [2, 3]: 2 h
Tmax ([2]; female, human, po, 3 mg): 20 min
Cmax [2, 4]: 0.66 ng/mL
Cmax [2, 5]: 0.61 ng/mL

CCCCCn1cc(C(=O)c2ccc(CC)c3ccccc23)c2ccccc21 [JWH-210, (4-ethyl-1-naphthalenyl)(1-pentyl-1H-indol-3-yl)-methanone]
time after which undetectable in OF ([2]; consumer smoked JWH-210 3 mg): 3 h
Tmax ([2]; female, human, po, 3 mg): 20 min
Cmax ([2]; female, human, po, 3 mg, peak concentration (Cmax) in OF, consumer smoked JWH-210 3 mg, by GC-MS, at 20 min): 8.1 ng/mL
Cmax [2, 4]: 7.3 ng/mL

CC1(C)C(C(=O)c2cn(CCCCCO)c3ccccc23)C1(C)C [UR-144 N-(5-OH), [1-(5-hydroxypentyl)-1H-indol-3-yl](2,2,3,3-tetramethylcyclopropyl)-methanone]
detection of metabolite in OF ([2]; consumer smoked UR-144 1 mg, UHPLC-HRMS, all the time-course): only detected in traces

CCCCCn1cc(C(=O)C2C(C)(C)C2(C)C)c2ccccc21 [UR-144, (1-pentyl-1H-indol-3-yl)(2,2,3,3-tetramethylcyclopropyl)-methanone]
time peak from smoking start ([2]; consumer smoked UR-144 1 mg): 20 min
time to decrease to undetectable values in OF ([2]; consumer smoked UR-144 1 mg): ≤ 4 h
Cmax ([2]; male, human, po, 1 mg, Cmax in OF, consumer smoked UR-144 1 mg, by GC-MS, at 20 min): 7.4 ng/mL
Cmax ([2]; male, human, po, 1 mg, Cmax in OF, consumer smoked UR-144 1 mg, by UHPLC-HRMS, at 20 min): 6.81 ng/mL
